Read-outs that look alike come from different tables or passages of the source.

For one test, the system named is LTD4. The test is described as follows: Oral Testing of Leukotriene Antagonists (guinea pig, SRS-A antagonism). It counts as in vivo, guinea pig (Hartley strain, Charles River). The note with it: 10 mg/kg P.O., two hours prior to challenge with leukotriene. Here is the method:
(c) Oral Testing of Leukotriene Antagonists
Male guinea pigs (Hartley strain, Charles River) weighing 400 to 600 g were anesthetized with urethane (2 g/kg) intraperitoneally and a polyethylene cannula was inserted into the jugular vein for intravenous drug administration. Tracheal pressure (cm water) was recorded from a Statham pressure transducer. After surgical preparation of the animals, a period of time was allowed for spontaneous breathing to stabilize. […] Two minutes later, spontaneous breathing was arrested with succinylcholine chloride (1.2 mg/kg, i.v.) and the animals ventilated with a Harvard (Model #680) small animal respirator set at 40 breaths per minute and 4.0 cc stroke volume. The animals were challenged with a maximum constrictory dose of either leukotriene C4 or leukotriene D4 or leukotriene E4 ([…], i.v.) at 5 minutes. Control vehicle or test drug (adjusted to an alkaline pH where necessary for drug solubilization) was administered (10 mg/kg, p.o) two hours prior to challenge with leukotriene. In order to determine the ID50 for a test drug, the dose is varied from 10 mg/kg, p.o. to 100, 50, 30, 20, 5, 3 and 1 mg/kg. p.o.
In order to determine oral duration of action, the time between exposure to test drug and challenge with leukotriene is varied.
In test procedure (c), the compounds listed in Table III were tested by this oral procedure, and the results obtained are also set out in Table III.

In test [1] the test system is SRS-A induced constriction of the guinea pig ileum. The test is described as follows: Guinea Pig Ileum, In Vitro (SRS-A antagonism). The test is classed as cell-based. The note with it: Cavia porcellus. Here is the method: (a) Guinea Pig Ileum, In Vitro:
The guinea pig ileum biassay system has been described by Orange Austen, Adv. Immunol. 10: 105-144 (1969). A 1.5 cm segment is removed from animals weighing 300-400 g and suspended in an organ bath containing 10 ml of Tyrodes solution with 10^-6 M atropine sulfate and 10^-6 M pyrilamine maleate. The bath is maintained at 37° C. and aerated with a mixture of 95% oxygen and 5% carbon dioxide. The SRS-A utilized in this screen is obtained by challenging chopped lung fragments from actively sensitized guinea pigs with egg albumin, in vitro. A dose-response curve to SRS-A challenge is established for the ileum. The dose of SRS-A which given 50% of the maximal contraction (EC50) is then used for subsequent challenge. The drug concentration which inhibits, by 50%, the SRS-A induced constriction of the guinea pig ileum is determined.

The next test has as its system leukotriene E4. The test is described as follows: Guinea Pig Bronchoconstriction, In Vivo (Aerosol) (SRS-A antagonism). More on the design: species or system guinea pig (Hartley strain). The following applies: leukotriene E4 i.v. challenge; for In vivo-aerosol IC50: 5 min exposure, % (w/v) conc. Here is the method: (b) Guinea Pig Bronchoconstriction, In Vivo (Aerosol):
Male guinea pigs (Hartley strain) weighing 300 to 500 g are anesthetized with urethane (2 g/kg) intraperitoneally and a polyetylene cannula is inserted into the jugular vein for drug administration. Tracheal pressure is recorded from a cannula inserted in the trachea and connected to a Statham pressure transducer. After surgical preparation of the animals, a period of time is allowed from pulmonary functions to stabilize. The test compound is administered according to the following protocol. Propanolol (0.1 mg/kg) is administered intravenously while the animals breathed spontaneously. Five minutes thereafter, the animals are exposed for a five minute period to a 1% (w/v) aerosol solution of test compound (adjusted to an alkaline pH where necessary for drug solubilization) or to distilled water of the appropriate pH (for control purposes). A Monaghan (Model 750) ultrasonic nebulizer is used to administer all test compounds by inhalation. The nebulizer ultrasonic frequency is adjusted to produce particles in the 1-8μ diameter range (average 3μ). Aqueous solutions are prepared freshly and introduced into the chamber of the nebulizeer. The output of the nebulizer is made available to the animal by directing a bias flow of aerosol through a Y tube connected to the tracheal cannula. At the end of the exposure period, the animals are paralyzed with succinylcholine (1.2 mg/kg, i.v.) and mechanically respirated (Harvard rodent respirator) at 40 breaths/minute and 2.5 cc tidal volume. […]
The change (cm H2 O) between pre and peak ventilatory pressure readings averaged for three control animals and five drug treated animals. The percent inhibition is calculated from the following formula: [formula] When various drug concentrations are tested, the percent inhibition at each concentration is plotted as log concentration (abscissa) versus percent inhibition (ordinate) and the IC50 is determined from linear regression analysis.

[2] abbreviates: SRS-A challenge at EC50, Table I, read-out: In vitro G.P. ileum IC50.

Take `CCCc1c(OCCCCC2(C)CC(=O)c3ccc(OCCCC(=O)OCC)c(CCC)c3O2)ccc(C(C)=O)c1O` (racemic) [rac.-4-[2-[4-(4-acetyl-3-hydroxy-2-propylphenoxy)butyl]-3,4-dihydro-2-methyl-4-oxo-8-propyl-2H-1-benzopyran-7-yl]oxy]butanoic acid ethyl ester]: the “% Inhib. of LTD4” value in the test with LTD4 came to 38 ± 7%. Take `CCCc1c(OCCCCC2(C)CC(=O)c3ccc(OCCCC(=O)O)cc3O2)ccc(C(C)=O)c1O` (racemic) [rac.-4-[[2-[4-(4-acetyl-3-hydroxy-2-propylphenoxy)butyl]-3,4-dihydro-2-methyl-4-oxo-2H-1-benzopyran-7-yl]oxy]butanoic acid]: in test [1] (setting [2]), the IC50 was found to be 3 µM. Turning to `CCCc1c(OCCCCC2(C)CC(=O)c3ccc(OCCCC(=O)O)c(CCC)c3O2)ccc(C(C)=O)c1O` (racemic) [rac.-4-[[2-[4-(4-acetyl-3-hydroxy-2-propylphenoxy)butyl]-3,4-dihydro-2-methyl-4-oxo-8-propyl-2H-1-benzopyran-7-yl]oxy]butanoic acid], the IC50 in test [1] (setting [2]) is 1 µM. The same measure, in the same setting: with `CCCc1c(OCCCCC2(C)CC(=O)c3ccc(OCC(=O)O)c(CCC)c3O2)ccc(C(C)=O)c1O` (racemic) [rac.-[2-[4-(4-acetyl-3-hydroxy-2-propylphenoxy)butyl]-3,4-dihydro-2-methyl-4-oxo-8-propyl-2H-1-benzopyran-7-yl]oxy]acetic acid] the figure was 2 µM. Take `CCCc1c(OCCCCC2(C)CC(=O)c3ccc(OCC(=O)OC)cc3O2)ccc(C(C)=O)c1O` (racemic) [rac.-[[2-[4-(4-acetyl-3-hydroxy-2-propylphenoxy)butyl]-3,4-dihydro-2-methyl-4-oxo-2H-1-benzopyran-7-yl]oxy]acetic acid methyl ester]: in the test on LTD4, the “% Inhib. of LTD4” value is given as 47 ± 5%. Consider `CCCc1c(OCCCCC2(C)CC(=O)c3ccc(OCC(=O)O)cc3O2)ccc(C(C)=O)c1O` (racemic) [rac.-[[2-[4-(4-acetyl-3-hydroxy-2-propylphenoxy)butyl]-3,4-dihydro-2-methyl-4-oxo-2H-1-benzopyran-7-yl]oxy]acetic acid], for which, in test [1] (setting [2]), the IC50 is 5 µM. For the compound `CCCc1c(OCCCCC2(C)CC(=O)c3ccc(OCC(=O)OC)c(CCC)c3O2)ccc(C(C)=O)c1O` (racemic) [rac.-[[2-[4-(4-acetyl-3-hydroxy-2-propylphenoxy)butyl]-3,4-dihydro-2-methyl-4-oxo-8-propyl-2H-1-benzopyran-7-yl]oxy]acetic acid methyl ester], the “% Inhib. of LTD4” value in the test with LTD4 is recorded as 25 ± 12%.

In the case of `CCCc1c(OCCCCC2CC(=O)c3ccc(OCC(=O)O)c(CCC)c3O2)ccc(C(C)=O)c1O` (racemic) [rac.-[[2-[4-(4-acetyl-3-hydroxy-2-propylphenoxy)butyl]-3,4-dihydro-4-oxo-8-propyl-2H-1-benzopyran-7-yl]oxy]acetic acid], the “In vivo-aerosol % inhib. at (% conc.)” value in the test on leukotriene E4 (at 0.1 % conc.) is given as 34.1 ± 8%. Moreover, in test [1] (setting [2]), the IC50 turned out to be 0.5 µM.

Take `CCCc1c(OCCCCCCC2(C)CC(=O)c3ccc(OCC(=O)O)c(CCC)c3O2)ccc(C(C)=O)c1O` (racemic) [rac.-[[2-[6-(4-acetyl-3-hydroxy-2-propylphenoxy)hexyl]-3,4-dihydro-2-methyl-4-oxo-8-propyl-2H-1-benzopyran-7-yl]oxy]acetic acid]: the “In vivo-aerosol IC50” value in the test with leukotriene E4 stood at 0.26%. Besides, the IC50 in test [1] (setting [2]) was 0.5 µM.

For the compound `CCCc1c(OCCCCCCC2CC(=O)c3ccc(OCC(=O)O)c(CCC)c3O2)ccc(C(C)=O)c1O` (racemic) [rac.-[[2-[6-(4-acetyl-3-hydroxy-2-propylphenoxy)hexyl]-3,4-dihydro-4-oxo-8-propyl-2H-1-benzopyran-7-yl]oxy]acetic acid], the “In vivo-aerosol IC50” value with leukotriene E4 was 0.32%. Also, the IC50 in test [1] (setting [2]) is 0.3 µM. As to `CCCc1c(OCC(O)Cc2ccc3c(=O)cc(C(=O)O)oc3c2CCC)ccc(C(C)=O)c1O` (centres unmarked) [7-[3-(4-acetyl-3-hydroxy-2-propylphenoxy)-2-hydroxypropyl]-4-oxo-8-propyl-4H-1-benzopyran-2-carboxylic acid, reference compound], the IC50 in test [1] (SRS-A challenge at EC50, read-out: IC50 of the standard SRS-A antagonist) stood at 0.035 µM.

By IC50 is commonly meant the point on the concentration scale where inhibition reaches its midpoint.

(Values after patent publication US4650812A, “4-oxo-3,4-dihydro-2H-1-benzopyranyloxy alkanoic acid derivatives” (Hoffmann-La Roche Inc., priority 1985, dated 1987).)
